Read-outs that look alike come from different tables or passages of the source.
How the values were obtained:
[1] = Loading capacity and encapsulation efficiency of IR783 and BC in NPs by HPLC; assay type: physicochemical
Method: BODIPY-Cb was dissolved in DMSO (20 μL, 10 mg/mL), and added dropwise to a 300 μL aqueous solution containing IR783 (400 μg/mL) under vigorous vortex. The solution was centrifuged once (2000×g, 10 min, 4° C.) to remove the precipitate. Then the supernatant was centrifuged twice (30,000×g, 30 min, 4° C.), and the resulting precipitate was re-suspended in 300 μL of sterile PBS. Other prodrug/dye NPs were prepared following the same procedure as above. The contents of IR783 and BC in the resulted nanoparticle solution were determined by HPLC analysis. Their loading capacity and encapsulation efficiency were calculated as follow: […]

[2] = Spectrum study of dye degradation under light irradiation (absorbance, fluorescence); assay type: physicochemical; settings: for decomposition of dye upon light irradiation: 530 nm, in ICG/BC NPs and IR820/BC NPs (FIGS. 2K-2M)
Method: At different time points, the absorbance and fluorescence were measured by spectrometers without any dilution.

[3] = system: human umbilical vein endothelial cells (HUVECs); test: Cytotoxicity in dark, biocompatibility evaluation; assay type: cell-based; settings: 24 h, up to 100 μM
Method: (§1) HCT116 cells were cultured in RPMI-1640 (Gibco) supplemented with 10% FBS (Gibco) and 100 units/mL antibiotics (Penicillin-Streptomycin, Gibco) at 37° C. in a 5% CO2 humidified atmosphere. HUVECs cells were cultured in DMEM (Gibco) supplemented with 10% FBS (Gibco) and 100 units/mL antibiotics (Penicillin-Streptomycin, Gibco) at 37° C. in a 5% CO2 humidified atmosphere.
(§2) The cell viability was evaluated by MTT assay. HCT116 cells were incubated in 96-well microliter plates for 24 h. Then, gradient concentrations of BC prodrug or IR783/BC NPs in RPMI 1640 culture medium were added to the cells. After 6 h incubation, the residual BC or IR783/BC NPs were removed by fresh RPMI 1640 culture medium (100 μL). Then, the cells were irradiated by 530 nm LED light (50 mW/cm^2, 5 min) or incubated at room temperature without light. After another incubation for 24 h, MTT solution (10 μL, 10 mg/mL) was added to the cells to cultivate for 3 h. Next, the cell culture medium was discarded, and DMSO (100 μL) was then added. The absorbance was measured by a multi-mode microplate reader at 490 nm, 570 nm and 630 nm.

[4] = Singlet oxygen detection in solution (SOSG assay); assay type: physicochemical; settings: 530 nm, 50 mW/cm^2, 0-1 min; equivalent concentration of BC
Method: Singlet oxygen generation was measured both in solutions and cells using SOSG and DCFH-DA as indicator, respectively. […] Besides, the intracellular ^1O2 generation was detected by CLSM. […] Subsequently, the cells were washed with PBS for 3 times and incubated with DCFH-DA (10 μM) for 30 min. The cells were irradiated by LED (530 nm, 50 mW/cm^2, 5 min) for the light irradiation groups. The intracellular fluorescence was observed by CLSM imaging to evaluate the ^1O2 generation.

[5] = In vivo biodistribution by fluorescence imaging in HCT116 tumor-bearing mice; design: species or system BALB/c nude mice; settings: i.v., imaging 1-24 h post injection
Method: The biodistribution of IR783/BC NPs in the HCT116 tumor model was visualized by an in vivo fluorescence imaging system (Cailper PerkinElemer, Waltham, MA, United States). IR783, as a NIR fluorescent dye, was directly detected for living imaging. Mice were treated with free IR783 and IR783/BC NPs via intravenous injection with a dose of IR783 at 100 μg/kg. Fluorescence imaging was performed at 1, 6, 16, 20, and 24 h post injection. At 24 h, mice were euthanized and the tumors and major organs (heart, liver, spleen, lung, kidney) were excised for ex vivo imaging.

[6] = system: HCT116 cells; test: Anti-proliferation effect by MTT assay; assay type: cell-based, human
Method: as §1, §2

[7] = system: HCT116 cells; test: Apoptosis study (Annexin-V FITC/PI, flow cytometry); assay type: cell-based, human; settings: 20 μM, with or without light irradiation
Method: For apoptosis study, HCT116 cells were seeded in 6-well plates at a density of 50000 cells/well and treated with free Cb or IR783/BC NPs at the equivalent concentration of Cb at 5 μM and 20 μM for 6 h. Then the cells were washed by PBS. The cells in the irradiation group were irradiated by light for 5 min. After 24-h incubation, cells were washed by PBS, collected by trypsin digestion, and stained with Annexin-V/FITC apoptosis kit. ACEA NovoCyte Quanteon flow cytometer (ACEA Biosciences, San Diego, CA, USA) was used for cell study.

[8] = system: HCT116 xenografts; test: In vivo antitumor efficacy; design: species or system BALB/c nude mice; settings: without light irradiation, i.v. Day 0, 4, 8, 12
Method: BALB/c nude mice were purchased from SLAC Experiment Animal Co., Ltd. (Shanghai, China) and kept in the Laboratory Animal Center of Fudan University (Shanghai, China). For the subcutaneous tumor model, male BALB/c nude mice were injected with 2×10^7 HCT116 cells subcutaneously. The mice were then further kept in SPF condition for 5-7 days until tumors were observed.
The antitumor efficacy of IR783/BC NPs in the presence or absence of light was investigated in HCT116 tumor mouse model. The mice were randomly divided into six groups when the tumor size reached about 200 mm^3. For different groups, mice were treated with different formulations via i.v. injection at Day 0, 4, 8, and 12: (1) PBS; (2) PBS+hv; (3) IR783+hv; (4) Cb; (5) IR783/BC NPs; (6) IR783/BC NPs+hv. For the irradiation group, light irradiations (100 mW/cm^2, 10 min) were performed 24 h post injection. The dose for each treatment was set as 5 mg/kg. Tumor sizes and body weights were measured in a 2-day interval, and the tumor volume was calculated as V=½×width^2×length. At the end of the experiment (Day 14), all mice were euthanized, and the tumors and major organs were collected and sliced for H&E staining and immunohistochemical analysis.

[9] = refs [17, 39]; cited from earlier work
[10] = system: HCT116 cells; test: Live/dead staining (Calcein-AM/PI); assay type: cell-based, human; settings: BC equivalent 50 μM; groups with or without 530 nm irradiation as stated
Method: For live/dead staining, HCT116 cells were seeded in confocal dishes at a density of 10000 cells/well and treated with PBS, free IR783, free BC and IR783/BC NPs with an equivalent concentration of BC at 50 μM. For the irradiation groups, cells were washed by PBS after 6 h and irradiated by 530 nm LED for 5 min. Calcein-AM and PI were then added into the medium and the cells were observed by CLSM without any treatment.

Compound: CC1(C)C(=CC=C2CCCC(C=CC3=[N+](CCCCS(=O)(=O)[O-])c4ccccc4C3(C)C)=C2Cl)N(CCCCS(=O)(=O)[O-])c2ccccc21.[Na+] [IR783]
- Encapsulation Efficiency [1]: 0.02%
- Loading Capacity [1]: 1.15%
- NIR fluorescence emission pattern upon light irradiation ([2]; 530 nm light irradiation): did not see similar phenomena
- cytotoxicity in dark [3]: Negligible cytotoxicity
- ^1O2 generation (SOSG fluorescence) [4]: much lower efficiency
- whole-body fluorescence retention after systemic administration [5]: fleetly eliminated

Compound: O=C(O)CCCc1ccc(N(CCCl)CCCl)cc1 [chlorambucil, Chlorambucil]
- cytotoxicity of free drug ([6]; with/without light irradiation (FIG. 8B)): relatively low
- apoptosis [7]: about 5%
- anti-tumor efficacy [8]: undermined
- hydrolysis in aqueous solution [9]: rapidly hydrolyze

Compound: CC1(C)C(=CC=C2CCCC(C=CC3=[N+](CCCCS(=O)(=O)[O-])c4ccc5ccccc5c4C3(C)C)=C2Cl)N(CCCCS(=O)(=O)[O-])c2ccc3ccccc3c21.[Na+] [IR820]
- decomposition of dye upon light irradiation [2]: decomposed

Compound: CC1(C)C(/C=C/C=C/C=C/C=C2\N(CCCCS(=O)(=O)O)c3ccc4ccccc4c3C2(C)C)=[N+](CCCCS(=O)(=O)[O-])c2ccc3ccccc3c21 [ICG, Indocyanine green]
- decomposition of dye upon light irradiation [2]: decomposed

Compound: boron-dipyrromethene-chlorambucil [BC]
- Encapsulation Efficiency ([1]; listed as BC prodrug): 84.37%
- Loading Capacity ([1]; listed as BC prodrug): 98.85%
- Encapsulation Efficiency ([1]; listed as BODIPY-Cb): 84.37%
- Loading Capacity ([1]; listed as BODIPY-Cb): 98.85%
- IC50 ([6]; 530 nm light irradiation, on BC prodrug basis, read-out: IC50 (cell viability)): 9.24 µM
- cell death in live-dead staining [10]: dead cells presenting red fluorescence were observed

Source: US20240415985A1, “PHOTOCLEAVABLE PRODRUG-BASED NANOMEDICINE FOR IN-SITU MONITORABLE CANCER THERAPY” (The University of Hong Kong, priority 2021, published 2024)
